Legend:
MPNST K14553 cells = test: XTT cell proliferation assay, K14553; type: cell-based, mouse
Experimental: (§1) Establishment of NPcis MPNST cell lines: Mice were euthanized by CO2 asphyxiation and tumors were dissected. The tumor volume was measured. The tumor was then cut in half, and ½ fixed in 4% PFA. The other half was rinsed, then cut into 24 pieces of approximately equal size. Each piece was diced with a razor blade and placed in 1 well of a 24 well plate, along with 625 μL of Triple Express (Gibco, Grand Island, N.Y., USA) and 5 μL of recombinant DNAse (Roche, Indianapolis, Ind., USA). Tumors were triturated, then incubated at 37° C. in a 5% CO2 incubator for 2-5 hours, with an additional trituration halfway through incubation time. At the end of the incubation, tumor pieces were triturated again, and suspended cells were transferred to 1.5 mL eppendorf tubes. […] Both plates were monitored for cell growth, grown up to 10 cm plates, and frozen down in 10% DMSO. […]
(§2) XTT Cell Proliferation Assay: Cells were seeded into 96-well plates at a density of 2,000 cells/well and allowed to reattach overnight. Cells were treated with SA, synthetic analogs, camptothecin (NCI Chemotherapeutics Repository, Md., USA), or DMSO control at the indicated concentrations continuously for 48 hours followed by assay in the 96-well plate for relative viable cell number using the dye […] (XTT) and a Wallac-Victor 2 plate reader (Perkin-Elmer, Waltham, Mass., USA). […]

Chemical stability = type: physicochemical; conditions: compared with the free resorcinols
NCI 60-cell line panel = test: NCI 60 cell line assay; type: cell-based, human
MPNST T265 cells = test: XTT cell proliferation assay, T265; type: cell-based, human
Experimental: (§3) XTT Cell Proliferation Assay: Cells were seeded into 96-well plates at a density of 2,000 cells/well and allowed to reattach overnight. Cells were treated with SA, synthetic analogs, camptothecin (NCI Chemotherapeutics Repository, Md., USA), or DMSO control at the indicated concentrations continuously for 48 hours followed by assay in the 96-well plate for relative viable cell number using the dye […] (XTT) and a Wallac-Victor 2 plate reader (Perkin-Elmer, Waltham, Mass., USA). Absorbance was determined at 450 nm with 650 nm as a reference reading. Primary astrocytes were additionally assayed at a 96 hour time point.
Cell lines and culture: Human MPNST cell lines (STS26T and T265) were obtained from the Pediatric Oncology Branch, NCI (Bethesda, Md., USA).

MPNST K16561 cells = test: XTT cell proliferation assay, K16561; type: cell-based, mouse
Experimental: as §1, §2

[1] = test system: KR158 cells stably transfected with GFP-actin; test: Cell morphology / actin confocal microscopy, KR158 GFP-actin; type: cell-based, mouse; conditions: 16-18 hrs treatment
Experimental: Doxorubicin studies: KR158 stably transfected with GFP-actin were treated with 25 and 50 μM doxorubicin for 18 hrs continuously.
Cell Morphology Assays and Confocal Microscopy: To assay cytoskeleton morphology, KR158 cells, mouse primary astrocytes, KR158 clones expressing the NF1-GRD constructs, K14553 cells, and A549 were seeded to cover slips and allowed to reattach overnight. Cells were treated for 18 hours with either the indicated concentrations of SA, or the vehicle control DMSO. The cover slips were fixed in 3.7% paraformaldehyde, permeablized in 0.1% Triton-X100, and stained with Alexa Fluor 488-phalloidin (Invitrogen, Carlsbad, Calif., USA) to detect actin and cells were mounted in Prolong Antifade containing DAPI (Invitrogen) to stain nuclei. The cells were imaged on a LSM510 confocal microscope (Carl Zeiss Inc., Jena, Germany). […] KR158 GFP-actin transfected cells were seeded to 8-well chamber slides, allowed to reattach, and then treated with indicated concentrations of SA. Actin structures were monitored continuously over a 16 hr period using confocal microscopy equipped with a growth chamber (37° C., humidified atmosphere and 5% CO2). To compare SA to Rho/Rock inhibitors, KR158 GFP-actin cells were treated with SA or with the Rho pathway inhibitors Rock inhibitor Y-27632 (Sigma, St. Louis, Mo., USA), and the Rho inhibitor C3 transferase (Cytoskeleton, Inc., Denver, Colo., USA, cat# CT04) for 16 hrs, and then examined by confocal microscopy.

A549 cells = test: XTT cell proliferation assay, A549; type: cell-based, human; conditions: 48 hours
Experimental: as §3

CC(C)=CCC/C(C)=C/Cc1c(O)cc(/C=C/c2cc(O)c3c(c2)C[C@@H]2C(C)(C)[C@H](O)CC[C@@]2(C)O3)cc1O [3dSB, 3-Deoxyschweinfurthin B]
inhibition of proliferation (percent viability versus control) (MPNST K14553 cells): sensitive

COc1cc(/C=C/c2cc3c(c(OC)c2)O[C@]2(C)C[C@@H](O)[C@@H](O)C(C)(C)[C@H]2C3)cc(O)c1CC=C(C)C [5′MeSE, 5′-Methylschweinfurthin E]
chemical stability (Chemical stability): more stable chemically than the free resorcinols
GI50 (NCI 60-cell line panel): low nM range
inhibition of proliferation (percent viability versus control) (MPNST T265 cells): sensitive

COc1cc(/C=C/c2cc(O)c3c(c2)C[C@@H]2C(C)(C)[C@H](O)CC[C@@]2(C)O3)cc(O)c1CC=C(C)C [5′MeSG, 5′-Methylschweinfurthin G]
chemical stability (Chemical stability): more stable chemically than the free resorcinols
inhibition of proliferation (percent viability versus control) (MPNST K16561 cells): sensitive
GI50 (NCI 60-cell line panel): low nM range
inhibition of proliferation (percent viability versus control) (MPNST T265 cells): sensitive

COc1cc(/C=C/c2cc(O)c(C/C=C(\C)CCC=C(C)C)c(O)c2)cc2c1O[C@]1(C)C[C@@H](O)[C@@H](O)C(C)(C)[C@H]1C2 [SB, Schweinfurthin B]
differential cytotoxicity (NCI 60-cell line panel; NCI 60-cell line panel): significant differential cytotoxicity
inhibition of proliferation (percent viability versus control) (MPNST T265 cells): sensitive

C[C@@H](N)[C@H]1CC[C@H](C(=O)Nc2ccncc2)CC1 [Y-27632, reference compound]
F-actin staining / stress fibers [1]: dramatic loss of F-actin staining

CC[C@@]1(O)C(=O)OCc2c1cc1n(c2=O)Cc2cc3ccccc3nc2-1 [camptothecin, reference compound]
inhibition of proliferation (percent viability versus control) (A549 cells): sensitive

COc1cccc2c1C(=O)c1c(O)c3c(c(O)c1C2=O)C[C@@](O)(C(=O)CO)C[C@@H]3O[C@H]1C[C@H](N)[C@H](O)[C@H](C)O1 [doxorubicin, reference compound]
F-actin staining / stress fibers [1]: retained stress fibers

C3 transferase
F-actin staining / stress fibers [1]: dramatic loss of F-actin staining

From US8686016B2, “Schweinfurthins and uses thereof” (The United States of America, as represented by the …, priority 2009, dated 2014)
